The nature of the data set: gradient 5% acetonitrile 3 min, to 50% in 2 min, to 85% in 15 min, held 3 min, 100 µL/min. The following applies: column: Zorbax Extend-C18 2.1 x 50 mm; eluents: water / acetonitrile, 0.1% formic acid. The method, boiled down:
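The system's dead and dwell volumes were 40 μL and 900 μL, with a Zorbax Extend-C18 column (2.1 × 50 mm, 1.8 μm) run at 100 μL/min in water and acetonitrile containing 0.1% formic acid each. Pure standards were analyzed in mixtures of ~100 molecules by HPLC–quadrupole time-of-flight mass spectrometry in positive and negative ionization mode. Retention time was assigned from computationally picked, manually inspected adduct peaks.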
Regarding `O=C(N[C@H]1C[C@@H]2C[C@H]1N(C(=O)Cc1c(F)cccc1Cl)C2)c1cccnc1`, the RP-LC retention time was determined as 695 s.
In the case of `Cc1ccc(NC(=O)N2CCC(OC3CCN(S(C)(=O)=O)CC3)CC2)cc1C` it was 803 s; in that of `COc1cccc(N2CCN(c3ccc(-c4nc(-c5ccccc5)no4)cn3)CC2)c1`, 1410 s.
For `O=C1CCCc2cc(S(=O)(=O)N3CCCC3C(=O)N3CCN(c4ccccc4)CC3)ccc2N1` (stereo not drawn), the RP-LC retention time is 750 s.
On to `CCN1CCN(c2c(C(=O)c3ccc(C)cc3)cnc3cc(OC)c(OC)cc23)CC1`, for which the RP-LC retention time was determined as 559 s.
Take `CC1Cc2cc(-c3cc(CC(=O)N4CCN(c5ccccc5F)CC4)no3)ccc2O1` (stereo not drawn): the RP-LC retention time amounted to 975 s.
For `O=S(=O)(c1ccccc1)N1CCc2nc(-c3ccc(Cl)cc3)ncc2C1`, the RP-LC retention time was determined as 1170 s.
As to `COc1ccc(NC(=O)Cn2nc3c(Oc4ccccc4Cl)nccn3c2=O)cc1`, the RP-LC retention time amounted to 859 s.
As to `O=C(NCC1CCCO1)C1CCN(Cc2cc3ccccc3n2Cc2ccc(F)cc2)CC1` (stereo not drawn), the RP-LC retention time came out at 702 s.
`CCc1ccc(NC(=O)N2CCC(N3CCN(Cc4ccc(F)cc4)C(=O)C3=O)CC2)cc1` returned an RP-LC retention time of 769 s.
`COc1ccc(Cl)cc1NC(=O)Cn1cnc2nc3c(cc2c1=O)CCCC3` gave an RP-LC retention time of 798 s.
As for `O=C(CN1C(=O)CCCc2cc(S(=O)(=O)N3CCCC3)ccc21)NCc1ccccc1`, the figure is 885 s; as for `Cc1sc(NC(=O)c2ccccc2F)nc1-c1ccc2c(c1)NC(=O)CO2`, 878 s.
`CCOc1ccc2ccccc2c1C(=O)NCCc1ccsc1`: the RP-LC retention time stood at 872 s.
As for `COCCC1(NS(C)(=O)=O)CCN(C(=O)NC(C)C)CC1`, the figure is 588 s.
In the case of `CCCCN(C)c1nc(-c2ccc([N+](=O)[O-])cc2)nc2ccccc12` it was 883 s.
`Cc1ccc(S(=O)(=O)N2CCC(N3CCN(Cc4ccccc4)C(=O)C3=O)CC2)cc1Cl`: the RP-LC retention time came out at 799 s.
In turn, `CCCCN1CCN(C(=O)c2cn(-c3cc(N4CCSCC4)ncn3)cn2)CC1` came in with an RP-LC retention time of 639 s.
In turn, `Cc1nc(-c2ccccc2)sc1C(=O)Nc1nc(-c2ccc(F)cc2)c(C)s1` came in with an RP-LC retention time of 1280 s.
In the case of `CCn1cc(CN2CCC(C(=O)NC(C)CCc3ccccc3)CC2)c2cc(Cl)ccc21` (stereo not drawn), the RP-LC retention time is 672 s.
As to `CCn1c(=O)oc2cc(-c3noc(-c4cccc(F)c4)n3)ccc21`, the RP-LC retention time stood at 1110 s.
As for `CCN(CC)CCNc1ccc(CO)c2sc3ccccc3c(=O)c12`, the figure is 646 s; as for `O=S(=O)(NCCOc1ccc2c(c1)OCO2)c1ccc(F)c(Cl)c1`, 903 s.
On to `COc1ccc(-c2nc(C)c(CCNS(=O)(=O)c3ccc4c(c3)OCCO4)s2)cc1`, for which the RP-LC retention time came to 831 s.
Compound `CC(C)n1cnc2cc(CNC(=O)Cc3c[nH]c4ccccc34)ccc21` gave an RP-LC retention time of 604 s.
As for `Cc1ccc(F)cc1NS(=O)(=O)c1cc2n(c1)CCN(CC(C)C)C2=O`, the RP-LC retention time amounted to 840 s.
As for `CCCC(=O)Nc1ccc(CCc2nc3ccc(C(=O)NCC(C)C)cc3[nH]2)cc1`, the figure is 646 s; as for `O=C(NCc1cccc(F)c1)c1ccc(-c2cccs2)nc1`, 894 s.
In the case of `CC(Oc1ccc(Cl)cc1)C(=O)N1CCCN(c2cc(-c3ccc(Br)cc3)[nH]n2)CC1` (stereo not drawn) it was 892 s; in that of `CCc1nc(N)n(CC(=O)Nc2ccc(F)cc2)c(=O)c1C`, 634 s; in that of `O=C(NCc1ccc(F)cc1Cl)C1CCN(c2cncnc2N2CCCC2)CC1`, 665 s.
In turn, `CCN1C(=O)c2cccnc2Sc2cc(NC(C)=O)ccc21` registered an RP-LC retention time of 627 s.
In turn, `CNC(=O)N1CCCC(c2cccc(C(=O)NCc3ccc(F)cc3F)c2)C1` (stereo not drawn) came in with an RP-LC retention time of 775 s.
As to `CCOc1cc(=O)n2c(c1C(=O)OCc1cccc(F)c1)CCCC2`, the RP-LC retention time worked out at 900 s.
As for `CCc1onc(C)c1C1CCCN1C(=O)Nc1ccc(OC)c(OC)c1` (stereo not drawn), the figure is 796 s; as for `CCCNC(=O)C1CCCN(S(=O)(=O)c2cc(-c3noc(C4CCCC4)n3)cs2)C1` (stereo not drawn), 1050 s.
Take `CCc1nnc(-c2ccc3ccn(CC(=O)Nc4cc(OC)c(OC)c(OC)c4)c3c2)o1`: the RP-LC retention time turned out to be 777 s.
Compound `COc1ccc(NC(=O)C2=Cc3cc(OC)ccc3OC=C2)cc1` gave an RP-LC retention time of 976 s.
In turn, `COCc1noc(C2CN(C(=O)c3ocnc3C)CC23CCCC3)n1` (stereo not drawn) came in with an RP-LC retention time of 733 s.
Regarding `COc1cccc(OC)c1-c1cc(C(=O)NC2(C(=O)O)C3CC4CC(C3)CC2C4)nn1-c1ccc(C(=O)N(C)CCCN(C)C)cc1C(C)C` (stereo not drawn), the RP-LC retention time was 860 s.
For `CCOC(=O)c1cccc(NC(=O)C2CCCN(c3ccc(=O)n(-c4ccc(F)cc4)n3)C2)c1` (stereo not drawn), the RP-LC retention time is 933 s.
`Cc1ccc(-c2nc(C(N)=O)c3n2CCCCC3)cc1` displayed an RP-LC retention time of 690 s.
The compound `O=C(NCc1ccc2c(c1)CCCN2C(=O)C1CCC1)c1cc(F)cc(F)c1` came in with an RP-LC retention time of 934 s.
The compound `O=C(Nc1nc(-c2ccc3c(c2)OCCO3)cs1)c1ccc2ncsc2c1` had an RP-LC retention time of 857 s.
As for `CN(C)c1cc(N2CCCC(NC(=O)c3cccnc3)C2)ncn1` (stereo not drawn), the figure is 553 s.
As to `CCOC(=O)c1c(S(=O)(=O)N2CCC(C(=O)Nc3cccc(SC)c3)CC2)c(C)n(C)c1C`, the RP-LC retention time turned out to be 907 s.
`COCCCNC(=O)C(C)n1c(=O)c(C(F)(F)F)nc2ccccc21` (stereo not drawn) had an RP-LC retention time of 854 s.
As for `Cc1cnc(C(=O)N2CCCCCCNC(=O)[C@@H]3CCC[C@@H]32)cn1`, the RP-LC retention time is 649 s.
The compound `O=C(NCCCN1CCCC1=O)C(=O)Nc1nccs1` yielded an RP-LC retention time of 578 s.
Turning to `CCc1noc(NC(C)=O)c1-c1ccc(C)c(S(=O)(=O)NC(C)C)c1`, the RP-LC retention time was 738 s.
Take `CCSCCOC(=O)C1=C(C)NC(=O)NC1c1cccc(OC)c1OC` (stereo not drawn): the RP-LC retention time is 792 s.
In the case of `COc1cccc(C(=O)N2C[C@@H]3C[C@H]2C[C@@H]3NC(=O)c2cccs2)c1OC` it was 698 s.
For the compound `CN1C(=O)c2cccnc2Sc2cc(C(=O)NC3CCCCC3)ccc21`, the RP-LC retention time is 773 s.
With `Cc1cc2c(c(=O)n(-c3ccc(F)cc3)c(=O)n2CC(=O)Nc2ccc3c(c2)OCO3)n1C`, the RP-LC retention time is 807 s.
In the case of `COCCNC(=O)C(=O)NCCc1cccc(OC)c1` it was 650 s; in that of `O=S(=O)(c1ccc2c(c1)CCC2)N1CC(c2nc(CCOCc3ccccc3)no2)C1`, 1140 s; in that of `CCn1cc(CN2CCC(C(=O)NCCCN3CCOCC3)CC2)c2cc(Cl)ccc21`, 585 s.
`CCC(C)C(=O)N1CCCN(C2=NS(=O)(=O)C(c3ccc(C)cc3)=C2C)CC1` (stereo not drawn) displayed an RP-LC retention time of 828 s.

The values above are taken from the METLIN SMRT retention time set (Domingo-Almenara et al. 2019).
